Tests used:
[1] = test system: human hepatocytes; test: mRNA expression of lipogenic, inflammatory and glucogenic markers in human hepatocytes (RT-PCR); assay type: cell-based; details: for expression of G6 Pase / expression of PEPCK: hepatocytes of non-diabetic and T2DM humans, inhibitor alone or with insulin; for expression of ACC / expression of FAS / expression of IL-1β / expression of SREBP-1c / expression of TNF-α: hepatocytes of non-diabetic and/or T2DM humans
Method: After thawing, the hepatocytes were distributed (approximately 10^6 cells per 100 mm plate) and incubated approximately 16 hours overnight in Dulbecco's minimal essential medium containing 5% fetal calf serum, 100 units/ml sodium-penicillin, 100 μg/ml streptomycin-sulfate, 1 μM insulin and 2 μM dexamethasone. After washing, cells were incubated first for 2 hours in William's E medium (Sigma-Aldrich, St. Louis, Mo., catalog no. W1878) containing GLUTAMAX™ (Gibco/Invitrogen, Carlsbad, Calif.), 100 units/ml sodium-penicillin, 100 μg/ml streptomycin-sulfate, 10 μM insulin, 100 nM dexamethasone, and then for 2 hours in William's E medium containing 100 units/ml sodium penicillin, 100 μg/ml streptomycin-sulfate, 100 nM dexamethasone, 0.25 mg/ml transferrin, 0.25 μg/ml sodium selenite and 10 μM insulin. Cells were then washed and incubated for 3 hours in the same medium, but lacking insulin. Where indicated, an aPKC inhibitor was then added and incubation was continued for 30 min, after which, cells were treated either for 15 min with or without 100 nM insulin for acute signaling studies, […] After incubation, cells were sonicated in homogenizing buffer.
(§1) mRNA Measurements: As previously described (Sajan et al., J. Lipid Res. 50:1133-1145, 2009; Sajan et al., Diabetologia 52:1197-1207, 2009; Farese et al., J. Clin. Invest. 117:2289-2301, 2007), tissues were added to TRIZOL® reagent (Invitrogen) and RNA was extracted and purified with the RNEASY® Mini-Kit (Qiagen; Valencia, Calif.) and RNAase-free DNAase set (Qiagen) as per kit instructions, quantified by measuring A260/A280, further checked for purity by electrophoresis on 1.2% agarose gels, and mRNA quantified by quantitative real-time reverse transcriptase-polymerase chain reaction (RT-PCR). Reverse transcription was accomplished with TAQMAN® reverse transcription reagent from Applied Biosystems (Foster City, Calif., USA). mRNAs were measured with a SYBR® Green kit (Applied Biosystems) using the nucleotide primers shown in Table 1.

[2] = test system: liver of Het-MλKO mice; test: hepatic mRNA and nuclear NFκB levels in Het-MλKO mice; assay type: in vivo, mouse; details: for hepatic ACC mRNA / hepatic FAS mRNA: 7-day treatment s.c. (ATM 60 mg/kg; ICAPP 0.4 mg/kg); for hepatic G6 Pase expression / hepatic PEPCK expression / hepatic SREBP-1c mRNA: s.c. once daily (ATM 60 mg/kg; ICAPP 0.4 mg/kg; ICAP 0.5 mg/kg)
Description: (§2) In Vivo Mouse Studies: Male wild type (WT) and heterozygous muscle-specific PKC-λ knockout (Het-MλKO) mice were generated as described (Farese et al., J. Clin. Invest. 117:2289-2301, 2007) and used at 6-12 months of age, when the O/MS/T2DM phenotype in MλKO mice is well-developed. Mice were housed in a temperature-controlled environment with alternating 12-hour light and dark cycles, and fed ad libitum with standard chow (Harlan Teklad 20/18 with 5% fat, (10% of calories from fat)). All experimental procedures in mice were approved by the Institutional Animal Care and Use Committees of the Roskamp Institute and the University of South Florida College of Medicine, and the James A. Haley Veterans Administration Medical Center Research and Development Committee, Tampa, Fla.
(§3) (ICAPP; prepared by Southern Research, Birmingham, Ala.) at 0.4 mg/kg body weight. On the morning of the eighth day of inhibitor treatment, mice were injected intraperitoneally (IP) with 0.9% saline or saline containing 1 U insulin/kg body weight 15 minutes before sacrifice, an optimal time for studies of insulin stimulation of aPKC and Akt in liver, muscle and adipose tissues (Standaert et al., J. Biol. Chem. 279:24929-24934, 2004; Sajan et al., J. Lipid Res. 50:1133-1145, 2009; Sajan et al., Diabetologia 52:1197-1207, 2009; Farese et al., J. Clin. Invest. 117:2289-2301, 2007). After killing, blood, liver, quadriceps muscle and abdominal adipose tissues were rapidly removed and homogenized in buffer with a POLYTRON® homogenizer.
as §1
Nuclear Preparations: As previously described (Sajan et al., J. Lipid Res. 50:1133-1145, 2009; Sajan et al., Diabetologia 52:1197-1207, 2009; Farese et al., J. Clin. Invest. 117:2289-2301, 2007), liver nuclei were prepared with NE-PER® Nuclear and Cytoplasmic Extraction Reagents (Pierce Biotechnology/Thermo Scientific, Waltham, Mass.; Cat. No. 78833) Levels of the active p65/RelA subunit of NFκB were measured in these nuclear preparations.

[3] = test system: Het-MλKO mice; test: clinical parameters in Het-MλKO mice (model of obesity/metabolic syndrome/T2DM); assay type: in vivo, mouse; details: for hepatic triglycerides / resting (basal) serum insulin levels: 7-day treatment s.c. (ATM 60 mg/kg; ICAPP 0.4 mg/kg); for serum glucose levels following acute insulin treatment: insulin 1 U/kg i.p.; for basal serum glucose levels (before insulin): s.c. once daily (ICAPP 0.4 mg/kg; ICAP 0.5 mg/kg)
Description: as §2, §3
Measurements of Serum Triglycerides, Cholesterol, Free Fatty Acids, Insulin and Glucose: Serum triglycerides, cholesterol, free fatty acids, insulin and glucose levels were measured as previously described (Sajan et al., J. Lipid Res. 50:1133-1145, 2009; Sajan et al., Diabetologia 52:1197-1207, 2009; Farese et al., J. Clin. Invest. 117:2289-2301, 2007).
Both aPKC inhibitors were tested in a murine model of O/MS/T2DM, a heterozygous muscle-specific PKC-λ knockout (Het-MλKO) mice, wherein defective insulin-stimulated glucose transport in muscle leads to glucose intolerance, systemic insulin resistance, hyperinsulinemia, increased hepatic aPKC activity, activation of hepatic SREBP-1c and IKKβ/NFκB, and thus to increased expression of hepatic enzymes engaged in lipogenesis and cytokine production, and ultimately to hepatosteatosis, abdominal obesity, hypertriglyceridemia, fatty acidemia, hypercholesterolemia, hyperinsulinemia, glucose intolerance, fasting hyperglycemia, and diminished glucose-lowering effects of acutely administered insulin (Sajan et al., J. Lipid Res. 50:1133-1145, 2009; Farese et al., J. Clin. Invest. 117:2289-2301, 2007).

[4] = Het-MλKO mice, ATM 60 mg/kg/day s.c., 7 days
[5] = Het-MλKO mice, s.c. once daily (ATM 60 mg/kg; ICAPP 0.4 mg/kg; ICAP 0.5 mg/kg)
[6] = non-diabetic human hepatocytes, 6 hours, 100 nM insulin, 100 nM ICAP
[7] = liver of ICAP-treated Mλ-Het KO mice, relative to wild type = 1
[8] = ICAP-treated Mλ-Het KO mice (n = 12), 0.5 mg/kg body weight/day x 8 days s.c., mean ± SEM

Row | Compound | expression of G6 Pase [1] | expression of PEPCK [1] | expression of ACC [1] | expression of FAS [1] | expression of IL-1β [1] | expression of SREBP-1c [1] | expression of TNF-α [1] | hepatic ACC mRNA ([2]; Het-MλKO mice) | hepatic FAS mRNA ([2]; Het-MλKO mice) | hepatic G6 Pase expression ([2]; Het-MλKO mice) | hepatic PEPCK expression ([2]; Het-MλKO mice) | hepatic SREBP-1c mRNA ([2]; Het-MλKO mice) | hepatic triglycerides ([3]; Het-MλKO mice) | resting (basal) serum insulin levels ([3]; Het-MλKO mice) | abdominal fat content [3, 5] | serum cholesterol [3, 5] | serum triglycerides [3, 5] | serum glucose levels following acute insulin treatment [3, 5] | basal serum glucose levels (before insulin) ([3]; Het-MλKO mice) | further results
1 | O=C([O-])CC([S][Au])C(=O)[O-] (stereo not drawn) [ATM, aurothiomalate, reference compound] | insulin-like, or enhanced insulin, effects | insulin-like, or enhanced insulin, effects | diminished | diminished | diminished | diminished | diminished | decreased, virtually to normal | decreased, virtually to normal | diminished | diminished | decreased, virtually to normal | decreased, virtually to normal | decreased, virtually to normal | decreased, virtually to normal | decreased, virtually to normal | decreased, virtually to normal | decreased, virtually to normal | – | hepatic active nuclear NFκB/p65/RelA levels [2, 4]: decreased, virtually to normal; hepatic expression of IL-1β [2, 4]: normalized; hepatic expression of TNF-α [2, 4]: normalized
2 | NC(=O)c1ncn([C@@H]2C[C@H](COP(=O)(O)O)[C@@H](O)[C@H]2O)c1N [ICAPP, 1H-imidazole-4-carboxamide, 5-amino-1-[2,3-dihydroxy-4-[(phosphonooxy)methyl]cyclopentyl]-[1R-(1α,2β,3β,4α)]] | insulin-like, or enhanced insulin, effects | insulin-like, or enhanced insulin, effects | diminished | diminished | diminished | diminished | diminished | diminished to wild type levels | diminished to wild type levels | trended downward to or toward control levels | trended downward to or toward control levels | diminished to wild type levels | marked improvements | marked improvements | marked improvements | marked improvements | marked improvements | marked improvements | marked improvements | serum free fatty acids ([3]; Het-MλKO mice, ICAPP 0.4 mg/kg/day s.c., 7 days): marked improvements; food intake ([3]; Het-MλKO mice, ICAPP-treated): not altered
3 | NC(=O)c1ncn([C@@H]2C[C@H](CO)[C@@H](O)[C@H]2O)c1N [ICAP, 1H-imidazole-4-carboxamide 5-amino-1-[2,3-dihydroxy-4-[hydroxymethyl]cyclopentyl]-[1R-(1α,2β,3β,4α)]] | – | – | – | – | – | – | – | – | – | decreased | decreased | decreased | – | – | diminished | diminished | diminished | diminished | diminished | effects on insulin-provoked aPKC activity and mRNA levels in hepatocytes of diabetic humans ([1]; hepatocytes of diabetic humans): Comparable results; insulin-provoked increase in ACC mRNA [1, 6]: inhibited; insulin-provoked increase in FAS mRNA [1, 6]: inhibited; insulin-provoked increase in IL-1β mRNA [1, 6]: inhibited; insulin-provoked increase in SREBP-1c mRNA [1, 6]: inhibited; insulin-provoked increase in TNF-α mRNA [1, 6]: inhibited; relative mRNA level, G6Pase [2, 7]: 1.42; relative mRNA level, PEPCK [2, 7]: 0.52; relative mRNA level, SREBP-1c [2, 7]: 1.14; Abdominal fat [3, 8]: 26 ± 3.2 mg/g body weight; Ad lib-fed serum glucose [3, 8]: 139 ± 20 mg/dL; serum cholesterol [3, 8]: 108 ± 10 mg/dL; serum triglycerides [3, 8]: 104 ± 7 mg/dL
